Experimental data: US7906546B2, “Tetrahydrocarbazoles and derivatives” (Hoffmann-La Roche Inc., priority 2004, dated 2011)

Legend:
human LXRβ = target: T1, human LXRβ (Homo sapiens, UniProt P55055); test: Radioligand binding assay (scintillation proximity), LXRbeta; conditions: GST-LXRβ-LBD on SPA beads, radioligand displacement
T1 construct: human LXRβ (aa 155 to 460); made in house; host or cells: E. coli BL21(pLysS)
T1 sequence (P55055 155-460): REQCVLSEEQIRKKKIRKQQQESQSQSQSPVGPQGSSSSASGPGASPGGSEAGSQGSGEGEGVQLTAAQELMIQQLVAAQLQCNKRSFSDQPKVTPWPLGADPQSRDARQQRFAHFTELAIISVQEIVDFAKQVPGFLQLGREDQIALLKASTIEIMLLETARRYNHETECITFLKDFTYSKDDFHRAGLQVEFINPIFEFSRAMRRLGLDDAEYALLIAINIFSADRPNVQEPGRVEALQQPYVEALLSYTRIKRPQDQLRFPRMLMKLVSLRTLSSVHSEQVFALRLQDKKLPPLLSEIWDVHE
Procedure: (§1) Mammalian expression vectors were constructed to express full-length human LXRα and LXRβ. […] To accomplish this, the portions of the sequences encoding the LBDs were amplified from full-length clones by PCR and then subcloned into the plasmid vectors.
(§2) Induction, expression, and purification of GST-LBD fusion proteins were performed in E. coli strain BL21(pLysS) cells by standard methods (Ref: Current Protocols in Molecular Biology, Wiley Press, edited by Ausubel et al).
(§3) LXRα and LXRβ receptor binding were assayed in buffer consisting of 50 mM HEPES, pH 7.4, 10 mM NaCl, 5 mM MgCl2. For each 96-well reaction, 500 ng of GST-LXRα-LBD or 700 ng of GST-LXRβ-LBD fusion proteins were bound to 80 μg or 40 μg SPA beads (Pharmacia Amersham) respectively, in a final volume of 50 μl by shaking. The resulting slurry was incubated for 1 h at RT and centrifuged for 2 min at 1300×g. The supernatant containing unbound protein was removed, and the semi-dry pellet containing the receptor-coated beads was re-suspended in 50 μl of buffer. […] All binding assays were performed in 96-well plates and the amount of bound ligand was measured on a Packard TopCount using OptiPlates (Packard). […]

human LXRα = target: T2, human LXRα (Homo sapiens, UniProt Q13133); test: Radioligand binding assay (scintillation proximity), LXRalpha; conditions: GST-LXRα-LBD on SPA beads, radioligand displacement
T2 construct: human LXRα (aa 164 to 447); made in house; host or cells: E. coli BL21(pLysS)
T2 sequence (Q13133 164-447): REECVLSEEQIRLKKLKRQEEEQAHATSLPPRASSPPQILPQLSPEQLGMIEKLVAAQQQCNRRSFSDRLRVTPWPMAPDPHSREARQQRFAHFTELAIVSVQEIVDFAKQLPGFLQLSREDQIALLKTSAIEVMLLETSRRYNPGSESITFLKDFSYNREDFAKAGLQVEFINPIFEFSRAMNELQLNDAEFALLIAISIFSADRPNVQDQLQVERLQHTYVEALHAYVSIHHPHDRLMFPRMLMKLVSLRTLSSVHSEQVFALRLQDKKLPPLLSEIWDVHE
Procedure: as §1, §2, §3

IC50 (human LXRβ) [nM] | IC50 (human LXRα) [nM] | Structure (SMILES)
6 | 43 | Cc1nnc([C@@](F)([C@@H]2Cc3[nH]c4ccc(Cl)cc4c3C2)S(=O)(=O)c2cccc(N(C)C)c2)o1 (racemic) [(RS, SR) {3-[(7-chloro-1,2,3,4-tetrahydro-cyclopenta[b]indol-2-yl)-fluoro-(5-methyl-[1,3,4]oxadiazol-2-yl)-methanesulfonyl]-phenyl}-dimethyl-amine]
270 | 1600 | COC(=O)[C@@](C)([C@H]1CCc2c([nH]c3ccc(Cl)cc23)C1)S(=O)(=O)c1ccccc1 (racemic) [(RS,SR)-2-benzenesulfonyl-2-(6-chloro-2,3,4,9-tetrahydro-1H-carbazol-2-yl)-propionic acid methyl ester]
